Measurements: paper PMC10492782, “Exploiting the aggregation propensity of beta-lactamases to design inhibitors that induce enzyme misfolding” (Nature Communications, 2023)

What was measured:
Format in all cases: cell-based, Escherichia coli
E. coli TEM-30 = details: for Interoretation: E. coli TEM-30; for Interpretation: VITEK 2 AST card
Description: (§1) Beta-lactamase clinical samples were collected from University Hospitals Leuven and tested for ESBL production using the disk diffusion method. The beta-lactamase reference isolates were purchased from International Health Management Associates (IHMA). Bacterial strains were cultivated in Mueller–Hinton Broth (MHB, Difco) at 37 °C. Whenever required, growth media were supplemented with appropriate antibiotics to the medium or plates (kanamycin 30 µg/mL, L-arabinose 0.5 mg/mL, and IPTG […]). Escherichia coli BL21 (ThermoFisher Scientific, Belgium) was used for cloning and plasmid amplification. For the selection of antibiotic resistant colonies, E. coli carrying plasmids was grown in LB agar plates supplemented with the relevant antibiotic. Bacterial CFU counting was done on blood agar plates (BD Biosciences, Belgium) or MHA agar plates. Species identification and antibiograms for all clinical isolates were performed using MALDI-Tof and VITEK® 2 automated system (BioMérieux, France).
(§2) Khodaparast et al Supplementary data
(§3) study. […] Abbreviations: S,
(§4) susceptible; I, intermediate; R, resistant.

E. coli TEM-148 = assay: VITEK 2 AST antimicrobial susceptibility testing; details: for Interoretation: E. coli TEM-148; for Interpretation: VITEK 2 AST card
Description: as §1, §2, §3, §4

E. coli NDM5b = assay: VITEK 2 AST antimicrobial susceptibility testing; details: for Interoretation: E. coli NDM5b; for Interpretation: VITEK 2 AST card
Description: as §1, §2, §3, §4

E. coli TEM-16 = assay: VITEK 2 AST antimicrobial susceptibility testing; details: for Interoretation: E. coli TEM-16; for Interpretation: VITEK 2 AST card
Description: as §1, §2, §3, §4

E. coli NDM5a = assay: VITEK 2 AST antimicrobial susceptibility testing; details: for Interoretation: E. coli NDM5a; for Interpretation: VITEK 2 AST card
Description: as §1, §2, §3, §4

E. coli SHV1 (APHA) = assay: VITEK 2 AST antimicrobial susceptibility testing; details: for Interoretation: E. coli SHV154; for Interpretation: VITEK 2 AST card
Description: as §1, §2, §3, §4

E. coli TEM-104 = assay: VITEK 2 AST antimicrobial susceptibility testing; details: for Interoretation: E. coli TEM-104; for Interpretation: VITEK 2 AST card
Description: as §1, §2, §3, §4

E. coli TEM-206 = assay: VITEK 2 AST antimicrobial susceptibility testing; details: for Interoretation: E. coli TEM-206; for Interpretation: VITEK 2 AST card
Description: as §1, §2, §3, §4

Row | Compound | Interoretation (E. coli TEM-30) | Interpretation (E. coli TEM-30) | Interoretation (E. coli TEM-148) | Interpretation (E. coli TEM-148) | Interoretation (E. coli NDM5b) | Interpretation (E. coli NDM5b) | Interoretation (E. coli TEM-16) | Interpretation (E. coli TEM-16) | Interoretation (E. coli NDM5a) | Interpretation (E. coli NDM5a) | Interoretation (E. coli SHV1 (APHA)) | Interpretation (E. coli SHV1 (APHA)) | Interoretation (E. coli TEM-104) | Interpretation (E. coli TEM-104) | Interoretation (E. coli TEM-206) | Interpretation (E. coli TEM-206)
1 | NCC[C@H](O)C(=O)N[C@@H]1C[C@H](N)[C@@H](O[C@H]2O[C@H](CN)[C@@H](O)[C@H](O)[C@H]2O)[C@H](O)[C@H]1O[C@H]1O[C@H](CO)[C@@H](O)[C@H](N)[C@H]1O [Amikacin] | S | S | S | S | S | S | S | S | S | S | S | S | S | S | S | –
2 | C=CC1=C(C(=O)O)N2C(=O)[C@@H](NC(=O)/C(=N\OCC(=O)O)c3csc(N)n3)[C@H]2SC1 [Cefixime] | *I | *I | *I | *I | R | R | R | R | R | R | R | R | S | S | R | R
3 | CO/N=C(\C(=O)N[C@@H]1C(=O)N2C(C(=O)O)=C(COC(C)=O)CS[C@H]12)c1csc(N)n1 [Cefotaxime] | R | R | R | R | R | R | R | R | R | R | R | R | S | S | R | R
4 | CO[C@@]1(NC(=O)Cc2cccs2)C(=O)N2C(C(=O)O)=C(COC(N)=O)CS[C@@H]21 [Cefoxitin] | S | S | S | S | R | R | S | S | R | R | R | R | S | S | S | S
5 | CC(C)(O/N=C(\C(=O)N[C@@H]1C(=O)N2C(C(=O)[O-])=C(C[n+]3ccccc3)CS[C@H]12)c1csc(N)n1)C(=O)O [Ceftazidime] | *I | *I | *I | *I | R | R | R | R | R | R | R | R | S | S | R | R
6 | CO/N=C(\C(=O)N[C@@H]1C(=O)N2C(C(=O)OC(C)OC(C)=O)=C(COC(N)=O)CS[C@H]12)c1ccco1 (stereo partly shown) [Cefuroxime Axetil] | R | R | R | R | R | R | R | R | R | R | R | R | S | S | R | R
7 | CO/N=C(\C(=O)N[C@@H]1C(=O)N2C(C(=O)O)=C(COC(N)=O)CS[C@H]12)c1ccco1 [Cefuroxime] | R | R | R | R | R | R | R | R | R | R | R | R | S | S | R | R
8 | CNC(C)C1CCC(N)C(OC2C(N)CC(N)C(OC3OCC(C)(O)C(NC)C3O)C2O)O1 (stereo not shown) [Gentamicin] | R | R | S | S | S | S | S | S | R | R | R | R | S | S | S | S
9 | C[C@H]1COc2c(N3CCN(C)CC3)c(F)cc3c(=O)c(C(=O)O)cn1c23 [Levofloxacin] | R | R | S | S | R | R | S | S | R | R | S | S | S | S | R | R
10 | C[C@@H](O)[C@H]1C(=O)N2C(C(=O)O)=C(S[C@@H]3CN[C@H](C(=O)N(C)C)C3)[C@H](C)[C@H]12 [Meropenem] | S | S | S | S | I | I | S | S | R | R | S | S | S | S | S | S
11 | O=C1CN(/N=C/c2ccc([N+](=O)[O-])o2)C(=O)N1 [Nitrofurantoin] | S | S | S | S | R | R | S | S | R | R | S | S | S | S | S | S
12 | CO[C@@]1(NC(=O)C(C(=O)O)c2ccsc2)C(=O)N2[C@@H](C(=O)O)C(C)(C)S[C@@H]21 (stereo partly shown) [Temocillin] | S | S | S | S | – | R | – | R | – | R | R | R | S | S | S | S
13 | CN(C)c1cc(NC(=O)CNC(C)(C)C)c(O)c2c1C[C@H]1C[C@H]3[C@H](N(C)C)C(O)=C(C(N)=O)C(=O)[C@@]3(O)C(O)=C1C2=O [Tigecycline] | I | I | S | S | S | S | S | S | S | S | S | S | S | S | S | S
14 | NC[C@H]1O[C@H](O[C@H]2[C@H](O)[C@@H](O[C@H]3O[C@H](CO)[C@@H](O)[C@H](N)[C@H]3O)[C@H](N)C[C@@H]2N)[C@H](N)C[C@@H]1O [Tobramycin] | *R | *R | S | S | S | S | S | S | R | R | *R | *R | S | S | S | –
15 | Amoxicillin + clavulanic acid | *R | *R | *R | *R | R | R | *R | *R | R | R | R | R | R | R | *R | *R
